Test results as given in publication PMC11141368, “Antioxidant, antibacterial, enzyme inhibition and fluorescence characteristics of unsymmetrical thiourea derivatives” (Heliyon, 2024).
Where “and” joins values, the source holds several entries; their conditions need not be identical. Equal values may be shown once.

Tests used:
[1] = DPPH free radical scavenging assay; assay type: biochemical
Protocol: (§1) In accordance with the procedure described in the literature, the ABTS activity assay was applied to evaluate the free radical scavenging capabilities of the synthesized compounds (1–6). ABTS solution was prepared by mixing 7 mM ABTS and 2.45 mM potassium persulfate and was then placed for 16 h under dark at room temperature. A methanol dilution was performed on the solution to achieve an absorbance of 0.706 ± 0.001 at 734 nm before starting the assay. To quantify the assay, 3 mL of the ABTS solution has been added to different concentrations (ranging from 62.5 to 1000 μg/mL) of every compound (300 μL) that were dissolved in methanol. Then after 1 min of incubation, the absorbance was continuously measured for 5 min. To confirm precision, all experiments were conducted in triplicate. The antioxidant capacities of the compounds were assessed with gallic acid as a reference, and the ability to remove free radicals was calculated as a percentage for each compound employing Equation.1 as presented below. Additionally, the DPPH free radical scavenging method was employed to assess the antioxidant activity of compounds (1–6), in accordance with a widely recognized procedure documented in existing literature. Concentrations ranging from 62.5 to 1000 μg/mL of compounds (1–6), dissolved in methanol, were introduced into a 2 mL solution of DPPH (0.002 % in methanol). The resulting solutions were kept in the dark at room temperature for a duration of 30 min. The amount of light absorbed by the solutions was then determined using a UV/vis spectrophotometer at a wavelength of 517 nm. The investigations were performed three times, using the exact protocol described for the ABTS scavenging assay. Afterwards, the antioxidant capabilities of each molecule were assessed using calculation.(1) Scavengingactivity(%)=A−B/A×100
(§2) Where, A = absorbance of ABTS/DPPH and B = absorbance of solution containing ABTS/DPPH and test samples.

[2] = ABTS free radical scavenging assay; assay type: biochemical
Protocol: as §1, §2

E. coli = experiment: Antibacterial agar well diffusion; assay type: cell-based, Escherichia coli (ATCC25922); settings: Escherichia coli, 24 h, 6.25 mg/mL per well, 37 °C
From the text: (§3) The antibacterial assay was done for all compounds (1–6) as described in previous studies. The mean number of viable organisms per milliliter of stock suspensions containing Escherichia coli (ATCC25922), Pseudomonas aeruginosa (ATCC27853), Salmonella typhi (ATCC0650), and Staphylococcus aureus (NCTC25953) was uncovered using the surface viable counting method. Preparations of suspensions containing approximately 108–109 colony forming units (CFU) per milliliter were made. Aseptic nutritional agar was formulated and transferred onto petri dishes. Cultures of bacteria were uniformly distributed on agar surface using sterile brush sticks. Five wells, each with a diameter of 6 mm, were made in each plate using a sterile borer. Afterwards, a concentration of 6.25 mg/mL of each component was applied to separate wells. Cephradine, a readily accessible antibiotic, was employed as a reference standard at an equivalent concentration. Following sealing, the agar dishes were incubated at a controlled temperature of 37 °C for a period of 24 h. The zone of inhibition in the plates was determined, which represents the inhibition of bacterial growth. Each sample zone of inhibition diameter was evaluated, and the antibacterial effectiveness of each drug was quantified according to the mean diameter of the inhibition zone (in millimetres).

S. typhi = experiment: Antibacterial agar well diffusion; assay type: cell-based, Salmonella typhi (ATCC0650); settings: 24 h, 6.25 mg/mL per well, 37 °C; for zone of inhibition at 6250 µg/mL: Salmonella enterica, TYPHI
From the text: as §3

S. flexenari = experiment: Antibacterial agar well diffusion; assay type: cell-based; settings: 24 h, 6.25 mg/mL per well, 37 °C
P. aeruginosa = experiment: Antibacterial agar well diffusion; assay type: cell-based, Pseudomonas aeruginosa (ATCC27853); settings: Pseudomonas aeruginosa, 24 h, 6.25 mg/mL per well, 37 °C
From the text: as §3

[3] = target: T1, acetylcholinesterase (AChE) (Electrophorus electricus, UniProt O42275); experiment: biochemical; settings: for inhibition at 62.5 µg/mL / inhibition at 125 µg/mL / inhibition at 250 µg/mL / inhibition at 500 µg/mL / inhibition at 1000 µg/mL: read-out: AChE Percent inhibition
T1 construct: The AChE was derived from the electric eel, while BChE was obtained from equineserum; from tissue; host or cells: electric eel (tissue not specified)
Protocol: (§4) This assay employed two enzymes, namely acetylcholinesterase (AChE) and butyryl cholinesterase (BChE). The AChE was derived from the electric eel, while BChE was obtained from equineserum. The synthesized compounds were dissolved in phosphate buffer (0.1 M, pH 8.0). The enzymes AChE (518 U/mg) and BChE (7–16 U/mg) were diluted in a 0.1 M phosphate buffer to achieve concentrations of 0.03 U/mL and 0.01 U/mL, respectively. Preparations of ATchI (0.5 mM), DTNB (0.2273 mM), and BTchI (0.5 mM) were made in distilled water and stored at a low temperature of 8 °C. […] The solution was heated to 30 °C for 15 min, followed by the gradual addition of the substrate. Absorbance of the heated sample at 412 nm was measured using a double beam spectrophotometer. […] The percentage activity (A) and inhibition of the enzyme were determined by applying the rate of absorption as a function of time (V=ΔAbs/Δt) using the following equation (Equation (2)).(2) %Inhibition=V/Vmax×100 Where V = enzyme inhibition activity of products and Vmax = enzyme activity without test of product.

[4] = target: T2, butyryl cholinesterase (BChE) (Equus caballus, UniProt P81908); experiment: Anticholinesterase assay (Elman's test), BChE; assay type: biochemical; settings: for inhibition at 62.5 µg/mL / inhibition at 125 µg/mL / inhibition at 250 µg/mL / inhibition at 500 µg/mL / inhibition at 1000 µg/mL: read-out: BChE Percent inhibition
T2 construct: The AChE was derived from the electric eel, while BChE was obtained from equineserum; from tissue; host or cells: equine serum
Protocol: as §4

T1 sequence (O42275 24-633): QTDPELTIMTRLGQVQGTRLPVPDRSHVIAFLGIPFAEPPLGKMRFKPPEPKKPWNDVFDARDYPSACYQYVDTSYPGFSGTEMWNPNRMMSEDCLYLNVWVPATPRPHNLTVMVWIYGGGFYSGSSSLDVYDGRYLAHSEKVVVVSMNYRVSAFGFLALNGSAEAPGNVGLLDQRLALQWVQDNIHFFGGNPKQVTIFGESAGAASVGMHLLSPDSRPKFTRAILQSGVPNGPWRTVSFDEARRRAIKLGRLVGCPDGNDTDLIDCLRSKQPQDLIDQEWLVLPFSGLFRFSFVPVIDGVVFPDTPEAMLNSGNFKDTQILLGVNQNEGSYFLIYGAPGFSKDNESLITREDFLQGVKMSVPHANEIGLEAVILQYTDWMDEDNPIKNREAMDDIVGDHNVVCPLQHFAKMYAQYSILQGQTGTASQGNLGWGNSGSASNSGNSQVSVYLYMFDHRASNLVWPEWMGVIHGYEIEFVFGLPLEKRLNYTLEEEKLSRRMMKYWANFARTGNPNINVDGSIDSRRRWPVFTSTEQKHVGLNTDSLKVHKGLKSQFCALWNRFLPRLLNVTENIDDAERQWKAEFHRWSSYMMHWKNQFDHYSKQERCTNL
T2 sequence (P81908 whole entry): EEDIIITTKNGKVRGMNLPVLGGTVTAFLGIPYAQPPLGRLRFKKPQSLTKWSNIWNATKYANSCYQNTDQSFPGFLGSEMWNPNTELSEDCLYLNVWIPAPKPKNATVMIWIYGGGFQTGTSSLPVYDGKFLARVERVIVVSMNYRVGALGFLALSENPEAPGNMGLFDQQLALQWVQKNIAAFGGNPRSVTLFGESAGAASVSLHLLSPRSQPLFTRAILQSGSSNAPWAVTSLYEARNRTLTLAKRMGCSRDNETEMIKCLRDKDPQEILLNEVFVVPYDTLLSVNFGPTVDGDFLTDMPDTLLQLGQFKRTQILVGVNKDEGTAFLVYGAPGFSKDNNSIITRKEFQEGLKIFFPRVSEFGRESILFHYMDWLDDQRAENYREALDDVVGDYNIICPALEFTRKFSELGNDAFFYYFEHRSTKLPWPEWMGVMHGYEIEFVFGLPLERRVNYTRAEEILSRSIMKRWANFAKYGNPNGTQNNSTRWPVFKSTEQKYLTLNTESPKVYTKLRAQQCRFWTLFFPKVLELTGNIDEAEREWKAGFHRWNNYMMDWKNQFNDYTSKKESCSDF

| SMILES | DPPH IC50 [1] [µg/mL] | DPPH %inhibition ([1]; 62.5 μg/mL) [%] | DPPH %inhibition ([1]; 125 μg/mL) [%] | DPPH %inhibition ([1]; 250 μg/mL) [%] | DPPH %inhibition ([1]; 500 μg/mL) [%] | DPPH %inhibition ([1]; 1000 μg/mL) [%] | ABTS IC50 [2] [µg/mL] | ABTS %inhibition ([2]; 62.5 μg/mL) [%] | ABTS %inhibition ([2]; 250 μg/mL) [%] | ABTS %inhibition ([2]; 500 μg/mL) [%] | ABTS %inhibition ([2]; 1000 μg/mL) [%] | zone of inhibition at 6250 µg/mL (E. coli) [mm] | zone of inhibition at 6250 µg/mL (S. typhi) [mm] | zone of inhibition at 6250 µg/mL (S. flexenari) [mm] | zone of inhibition at 6250 µg/mL (P. aeruginosa) [mm] | IC50 [3] [µM] | inhibition at 62.5 µg/mL [4] [%] | inhibition at 125 µg/mL [4] [%] | inhibition at 500 µg/mL [4] [%] | inhibition at 1000 µg/mL [4] [%] | also measured |
| --- | --- | --- | --- | --- | --- | --- | --- | --- | --- | --- | --- | --- | --- | --- | --- | --- | --- | --- | --- | --- | --- |
| Cc1ccc(NC(=S)NC2CCCCC2)c(C)c1 [Compound 3, 1-cyclohexyl-3-(2,4-dimethylphenyl) thiourea] | 118.05 | 46.72 ± 2.13 | 51.88 ± 1.29 | 62.53 ± 1.11 | 71.19 ± 1.27 | 80.38 ± 1.10 | 115.07 | 46.06 ± 1.86 | 62.14 ± 1.30 | 71.16 ± 2.10 | 80.11 ± 1.01 | 11 | 8.5 | 10 | 13.5 | 548 | 44.29 ± 0.43 | 50.23 ± 0.44 | 61.87 ± 0.39 | 67.44 ± 0.09 | inhibition at 62.5 µg/mL [3]: 43.7 ± 0.66%; inhibition at 125 µg/mL [3]: 49.7 ± 0.35%; inhibition at 250 µg/mL [3]: 53.1 ± 0.62%; inhibition at 500 µg/mL [3]: 59.01 ± 0.42%; inhibition at 1000 µg/mL [3]: 65.5 ± 2.26%; IC50 [4]: 468 µM; inhibition at 250 µg/mL [4]: 55.8 ± 1.07% |
| S=C(Nc1ccc(Cl)cc1)NC1CCCCC1 [Compound 4, 1-(4-chlorophenyl)-3-cyclohexylthiourea] | 67.11 | 48.18 ± 2.31 | 54.67 ± 2.08 | 63.74 ± 0.81 | 72.29 ± 0.27 | 82.11 ± 1.20 | 67.01 | 48.19 ± 1.26 | 61.14 ± 1.43 | 71.03 ± 1.61 | 81.23 ± 1.01 | 12 | 11.5 | 13 | 10 | 928 | 33 ± 1.15 | 42.7 ± 0.89 | 63.03 ± 0.23 | 71.33 ± 0.49 | inhibition at 62.5 µg/mL [3]: 31.9 ± 0.48%; inhibition at 125 µg/mL [3]: 39 ± 0.48%; inhibition at 250 µg/mL [3]: 47.9 ± 0.96%; inhibition at 500 µg/mL [3]: 61.6 ± 1.34%; inhibition at 1000 µg/mL [3]: 69.6 ± 1.12%; IC50 [4]: 814 µM; inhibition at 250 µg/mL [4]: 49 ± 0.58% |
| Cc1cccnc1NC(=S)NC1CCCCC1 [Compound 2, 1-cyclohexyl-3-(3-methylpyridin-2-yl)thiourea] | 72.00 | 46.51 ± 2.74 | 54.86 ± 2.86 | 64.15 ± 2.10 | 73.41 ± 2.87 | 81.22 ± 2.89 | 82.02 | 45.52 ± 2.80 | 60.39 ± 1.71 | 70.37 ± 2.37 | 79.87 ± 2.65 | 9.5 | 11.5 | 11 | 13.5 | 1480 | 31.5 ± 0.71 | 37.5 ± 0.77 | 56.45 ± 0.49 | 64.79 ± 0.62 | ABTS %inhibition ([2]; 125 μg/mL): 51.10 ± 1.39%; inhibition at 62.5 µg/mL [3]: 29.7 ± 0.61%; inhibition at 125 µg/mL [3]: 35.7 ± 0.77%; inhibition at 250 µg/mL [3]: 43.8 ± 0.56%; inhibition at 500 µg/mL [3]: 54.6 ± 0.8%; inhibition at 1000 µg/mL [3]: 62.6 ± 0.77%; IC50 [4]: 1260 µM; inhibition at 250 µg/mL [4]: 45.8 ± 0.58% |
| CC1=C(C(=O)O)N2C(=O)[C@@H](NC(=O)[C@H](N)C3=CCC=CC3)[C@H]2SC1 [Std.Drug, Cephradine, reference compound] |  |  |  |  |  |  |  |  |  |  |  |  | 15 |  |  |  |  |  |  |  | Zone of inhibition (S. typhi): 25 mm and 20 mm and 14 mm and 13 mm |
| S=C(Nc1ccccc1)Nc1cccc(Cl)c1 [Compound 6, 1-(3-chlorophenyl)-3-phenylthiourea] | 90.30 | 43.49 ± 2.72 | 53.66 ± 1.17 | 61.47 ± 2.74 | 76.24 ± 2.61 | 82.19 ± 2.32 | 86.03 | 44.27 ± 1.53 | 63.09 ± 1.34 | 75.19 ± 2.59 | 81.28 ± 2.17 | 8.5 | 9.5 | 10.5 | 15.5 | 329 | 51.61 ± 0.43 | 55.1 ± 0.6 | 66.8 ± 7.85 | 71.6 ± 1.63 | ABTS %inhibition ([2]; 125 μg/mL): 53.26 ± 2.76%; inhibition at 62.5 µg/mL [3]: 47.61 ± 0.43%; inhibition at 125 µg/mL [3]: 52.7 ± 1.01%; inhibition at 250 µg/mL [3]: 57.8 ± 1.5%; inhibition at 500 µg/mL [3]: 62.84 ± 0.3%; inhibition at 1000 µg/mL [3]: 67.51 ± 0.54%; IC50 [4]: 216 µM; inhibition at 250 µg/mL [4]: 61.2 ± 1.4% |
| O=C(O)c1cc(O)c(O)c(O)c1 [Gallic acid, gallic acid, reference compound] | 27.06 | 57.54 ± 0.46 | 63.83 ± 1.07 | 69.47 ± 0.46 | 75.45 ± 0.45 | 81.45 ± 0.65 | 39.54 | 51.68 ± 0.22 | 66.43 ± 0.29 | 71.88 ± 0.20 | 75.89 ± 0.20 |  |  |  |  |  |  |  |  |  | ABTS %inhibition ([2]; 125 μg/mL): 59.84 ± 0.32% |
| COc1ccc2c3c1O[C@H]1C[C@@H](O)C=C[C@@]31CCN(C)C2 [Galantamine, reference compound] |  |  |  |  |  |  |  |  |  |  |  |  |  |  |  |  | 64.9 ± 0.87 | 67.9 ± 0.98 | 81.83 ± 0.37 | 89.64 ± 0.62 |  |
